# Article PMC5596814 (The Journal of Pharmacology and Experimental Therapeutics, 2017)
# Key:
# [1] = system: human recombinant P450 enzymes; test: Ponatinib biotransformation by panel of 11 human recombinant P450 enzymes; type: in vitro ADME; conditions: ponatinib 50 µM, P450 100 nM, panel of 11 enzymes
# Protocol: All incubations were performed at 37°C and 300 rpm in a thermomixer. Human cDNA-expressed P450 isoenzymes coexpressed with human NADPH P450 oxidoreductase (see Supplemental Fig. 1 for CYP:oxidoreductase ratio data) were carefully thawed on ice prior to the experiment. […] After 5-minute preincubation at 37°C, the incubation reactions were initiated by addition of a NADPH regenerating system (final concentration: 1.3 mM NADPH, 4 mM glucose-6-phosphate, and 2 unit/ml glucose-6-phosphate dehydrogenase). After 5–120 minutes, an aliquot of 100 µl of reaction mixture was quenched with same volume of cold acetonitrile containing 400 ng/ml of triazolam as the internal standard. […] An aliquot of the supernatant fraction was analyzed by liquid chromatography (LC)–tandem mass spectrometry (MS), i.e., LC-MS/MS. […]
# In the present study, the absolute concentrations of the metabolites in the incubation mixture could not be determined because of the lack of authentic standards. […] The relative activity of the P450s toward metabolite formation could be calculated according to the ratio of the metabolite concentration to that in the sample with highest mass response. The PK parameters of in vivo data were calculated with a simple noncompartmental model using the WinNonLin software, version 4.1 (Pharsight (Certara, Cambridge, UK)) and are shown with the S.D. values. […]
# [2] = target: T1, mGstp1 (Mus musculus, UniProt P19157); test: Protein adducts of ponatinib with mGstp1 in the presence of human recombinant CYP1A1 (LC-MS/MS of tryptic digests); type: in vitro ADME; conditions: ponatinib 50 µM, CYP1A1, 10 µg/ml mGstp1, 80 minutes
# T1 construct: made in house
# Protocol: The incubation was started by the addition of a NADPH-regenerating system (final concentration: 1.3 mM NADPH, 4 mM glucose-6-phosophate, 2 U/ml glucose-6-phosphate dehydrogenase, and 3.3 mM […]) and allowed to proceed at 37°C for 80 minutes. The reaction was terminated by cooling on ice, and the E. coli membrane containing human recombinant CYP1A1 was removed by ultracentrifugation at 41,000g at 4°C for 80 minutes. […] The solvent was exchanged to 50 mM ammonium bicarbonate and further concentrated to 100 µl.
# Aliquots of the solution (10 µl) were mixed with 10 μl of 4× NuPAGE lithium dodecyl sulfate loading buffer (Invitrogen, Carsbad, CA) by incubation at 95°C for 5 minutes and then subjected to SDS-PAGE on a NuPAGE Novex 10% Bis-Tris mini gel (Invitrogen NP0341BOX). After electrophoresis at a constant 180 V for 30 minutes, gels were stained with Coomassie Blue. Bands (20–25 kDa) containing mGstp1 were cut from the gel, and after removing the Coomassie Blue from the gel by adding 100 mM ammonium bicarbonate/acetonitrile (1:1, v/v) and subsequently dehydrating with 100% acetonitrile, the solvent was removed from the gel pieces under vacuum. The residue was resuspended in 0.01 μg/μl MS grade trypsin (Promega, Madison, WI) in 25 mM ammonium bicarbonate and incubated at 37°C overnight. […]
# [3] = human; cited from earlier work
# [4] = in vivo; conditions: male, mouse, plasma, po, 40 mg/kg, ponatinib 40 mg/kg oral gavage; for Cmax: WT mice
# [5] = concurrent therapy with ketoconazole (a CYP3A4 inhibitor), ref Narasimhan et al., 2013; cited from earlier work
# [6] = in vivo; conditions: for Cmax / half-life: male, hCYP1A1/1A2 humanized, mouse, in vivo, po, 40 mg/kg, ponatinib 40 mg/kg oral gavage; for Cmax: hCYP1A1/1A2 mice; for half-life: t1/2, hCYP1A1/1A2 mice
# Protocol: All animal work was carried out on 8- to 12-week-old male mice. 3-Methylcholanthrene (3-MC) was suspended in corn oil at 4 mg/ml for administration by intraperitoneal injection at 40 mg/kg (10 μl/g body weight) daily for 3 days for hCYP1A1/2 mice. TCDD was suspended in corn oil at 1 µg/ml for administration by intraperitoneal injection at 10 µg/kg (10 μl/g body weight) daily for 3 days for wild-type (WT) mice. […] For blood sample collection, 10 μl of whole blood was withdrawn from the tail vein at the indicated time points. Samples were immediately added to a tube containing heparin solution (10 μl, 15 IU/ml), put into liquid nitrogen, and then stored at −80°C until processing. On the day of analysis, acetonitrile (80 µl containing 200 ng/ml triazolam) was added to thawed samples, which were shaken for 15 minutes, centrifuged for 10 minutes at 16,000g, and analyzed. […] An aliquot of 0.25 g was extracted with 1 ml of 80% methanol for 30 minutes on a vortex evaporator (Labconco, Kansas City, MO). After centrifugation (30 minutes at 4000g), the solvent of a 800 μl aliquot of the supernatant was removed by speed vacuum, followed by reconstitution in 500 μl methanol and water (50/50, v/v), and analyzed by LC-MRM.
# Analysis of in vitro incubation and in vivo blood PK samples was carried out by ultra-performance LC-MS/MS using the Waters Acquity UPLC (Micromass, Manchester, United Kingdom) and Micromass Quattro Premier Mass Spectrometer with electrospray ionization. The chromatography was performed using a C18 column (Kinetex 1.7 µ 100 A; 50 × 2.1 mm; Phenomenex, Macclesfield, United Kingdom) at a temperature of 45°C with mobile phases of 0.1% formic acid (A) and acetonitrile and 0.1% formic acid (B). A gradient at a flow rate of 0.5 ml/min was run over 3 minutes as follows: 0–0.5 minutes, 95% A; 0.5–0.75 minutes, 95%–67.5% A; 0.75–1.50 minutes, 67.5% A, 1.50–2.00 minutes, 67.5%–50% A; 2.00–2.50 minutes, 50%–5% A; and then returning to the initial conditions for a final 0.5 minutes. The cone voltage and collision energy were optimized for each substrate and MRM data were acquired (Supplemental Table 1).
# In the present study, the absolute concentrations of the metabolites in the incubation mixture could not be determined because of the lack of authentic standards. Therefore, the relative activity of the P450s was presented by comparing the concentration of the metabolite in a sample with the concentration of the same metabolite in the sample that had the highest response under the same experimental condition ([Yu et al., 2010]). The relative activity of the P450s toward metabolite formation could be calculated according to the ratio of the metabolite concentration to that in the sample with highest mass response. The PK parameters of in vivo data were calculated with a simple noncompartmental model using the WinNonLin software, version 4.1 (Pharsight (Certara, Cambridge, UK)) and are shown with the S.D. values. The P values were calculated using an unpaired t test; *P < 0.05, **P < 0.01, ***P < 0.001.
# [7] = cited from earlier work
# [8] = WT mice treated with TCDD versus vehicle
# [9] = set-up: method as in Narasimhan et al., 2013; conditions: ref Narasimhan et al., 2013, cited from earlier work
# [10] = hCYP1A1/1A2 mice treated with 3-MC versus vehicle
# [11] = 3-MC pretreatment (40 mg/kg i.p. daily for 3 days)
# [12] = ponatinib treatment, ref Cortes et al., 2012
# T1 sequence (P19157 2-210 limits assumed): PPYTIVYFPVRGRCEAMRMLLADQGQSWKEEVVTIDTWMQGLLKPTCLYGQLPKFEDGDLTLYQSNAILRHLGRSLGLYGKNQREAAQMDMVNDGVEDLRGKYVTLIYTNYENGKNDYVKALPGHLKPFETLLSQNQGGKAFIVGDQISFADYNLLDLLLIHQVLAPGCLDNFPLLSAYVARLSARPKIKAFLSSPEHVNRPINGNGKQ
compound,measurement,setting,value
"Cc1ccc(C(=O)Nc2ccc(CN3CCN(C)CC3)c(C(F)(F)F)c2)cc1C#Cc1cnc2cccnn12 [ponatinib, 3-[2-(imidazo[1,2-b]pyridazin-3-yl)ethynyl]-4-methyl-N-4-[(4-methylpiperazin-1-yl)methyl]-3-(trifluoromethyl)phenylbenzamide]","P450 enzymes metabolizing ponatinib, disappearance of the parent drug",[1],principally metabolized via CYP3A4 and CYP1A1
same,covalent ponatinib adducts on mGstp1 cysteine residues,[2],ponatinib-Gstp adducts had been formed on Cys-14 and Cys-47
same,plasma half-life (t1/2),[3],~24 h
same,Cmax,[4]; TCDD pretreatment (10 µg/kg i.p. daily for 3 days),253 ± 42 ng/mL
same,Cmax,[4]; vehicle pretreatment,1210 ng/mL
same,half-life,"[4]; t1/2, WT mice, vehicle pretreatment",6.2 ± 0.2 h
same,"change of ponatinib AUC0–∞, AUC0–t and Cmax values",[5],significantly increased
same,reduction in AUC0–8 hours,[6]; [10],54%
same,reduction in half-life,[6]; [10],67%
same,Cmax,[6]; [11],620 ± 245 ng/mL
same,Cmax,[6]; vehicle pretreatment,705 ± 96 ng/mL
same,half-life,[6]; [11],4.6 ± 0.8 h
same,half-life,[6]; vehicle pretreatment,13.9 ± 1.7 h
same,"alanine aminotransferase elevation, patients in clinical trials",[7]; clinical trials,10.5%
same,"aspartate aminotransferase elevation, patients in clinical trials",[7]; clinical trials,8.2%
same,"neutropenia, patients",[7]; [12],19%
same,"thrombocytopenia, patients",[7]; [12],37%
same,decrease in the ponatinib half-life,[8],62%
same,reduction in the AUC0–8 hours value,[8],87%
Cc1ccc(C(=O)O)cc1C#Cc1cnc2cccnn12 [AP24600],activity of metabolite,[9]; esterase/amidase product,inactive
Cc1ccc(C(=O)Nc2ccc(CN3CCNCC3)c(C(F)(F)F)c2)cc1C#Cc1cnc2cccnn12 [N-desmethyl],potency relative to ponatinib (fold less potent),[9],4 fold
